One experiment relates to Swiss albino mice. Put plainly: Serum triglyceride lowering activity in Swiss albino mice. Format: in vivo. The conditions noted are these: male Swiss albino mice, 10 mg/kg/day orally for 6 days, serum 1 hour after dose on 6th day, fed state. How it is done:
i) Serum Triglyceride and Total Cholesterol Lowering Activity in Swiss Albino Mice:
Male Swiss albino mice (SAM) were bred in Zydus animal house. All these animals were maintained under 12 hour light and dark cycle at 25±1° C. Animals were given standard laboratory chow (NIN, Hyderabad, India) and water ad libitum. SAM of 20-30 g body weight range was used. The protocol approved by Institutional Animal Ethics Committee is being used.
The test compounds were administered orally to Swiss albino mice at 0.001 to 50 mg/kg/day dose for 6 days. The compound was administered after suspending it in 0.25% CMC or dissolving it in water, when compound is water-soluble. Control mice were treated with vehicle (0.25% of Carboxymethyl cellulose; dose 10 ml/kg).
The blood samples were collected on 0th day and in fed state 1 hour after drug administration on 6th day of the treatment. The blood was collected in non heparinised capillary and the serum was analyzed for triglyceride and total cholesterol (Wieland, O. Methods of Enzymatic analysis. Bergermeyer, H., O., Ed., 1963. 211-214; Trinder, P. Ann. Clin. Biochem. 1969. 6: 24-27). Measurement of serum triglyceride and total cholesterol was done using commercial kits (Zydus-Cadila, Pathline, Ahmedabad, India).
(§1) Percentage reduction in triglycerides/total cholesterol were calculated according to the formula:
[formula] • OC=Zero day control group value OT=Zero day treated group value • TC=Test day control group TT=Test day treated group

The target in the next experiment is T1, hPPARγ (Homo sapiens, UniProt P37231).
T1 sequence (P37231 1-505): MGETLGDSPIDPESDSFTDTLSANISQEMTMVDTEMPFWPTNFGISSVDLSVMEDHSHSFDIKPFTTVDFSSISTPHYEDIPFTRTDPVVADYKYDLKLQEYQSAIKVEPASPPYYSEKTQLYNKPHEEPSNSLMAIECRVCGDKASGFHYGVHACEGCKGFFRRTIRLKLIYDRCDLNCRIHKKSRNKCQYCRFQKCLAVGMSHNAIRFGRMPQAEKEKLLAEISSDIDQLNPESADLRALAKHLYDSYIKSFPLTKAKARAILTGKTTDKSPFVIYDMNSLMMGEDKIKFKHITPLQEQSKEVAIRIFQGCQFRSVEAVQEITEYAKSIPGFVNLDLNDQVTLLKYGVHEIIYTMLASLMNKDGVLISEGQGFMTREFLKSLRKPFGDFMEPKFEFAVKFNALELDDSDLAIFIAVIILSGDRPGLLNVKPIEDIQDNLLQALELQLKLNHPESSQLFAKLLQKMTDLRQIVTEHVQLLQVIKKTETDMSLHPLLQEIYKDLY
Put plainly: In vitro hPPAR gamma activity (in-house protocol). The experiment is classed as cell-based. The conditions noted are these: read-out: EC50 (PPAR gamma). The protocol: (§2) In vitro hPPAR α & hPPARγ activities were determined as per in-house protocols and the results of representative compounds are provided below as a proof of the efficacies of the novel class of compounds disclosed above.

For experiment [1], the system named is Hamster of Syrian golden stain. Description: Serum triglyceride lowering activity in HF-HC diet fed Hamster of Syrian golden stain. Format: in vivo. Particulars: HF-HC diet hamsters, 3 mg/kg/day oral gavage, non-fasted serum on day 14, 1 hr after dose.
Source text: ii) Serum triglyceride and total cholesterol lowering activity in Hamster of Syrian golden stain:
Male and Female Hamster of Syrian golden stain were bred in Zydus animal house. All these animals were maintained under 12-hour light and dark cycle at 22±3 degree C. The protocol approved by Institutional Animal Ethics Committee is being used. Animals of 3-12 weeks age (80-150 gm body weight) were taken for study. Near the end of the acclimatization period, animals judged to be suitable for testing will bee weighed. […] Other animals were put on HF-HC (High fat and high cholesterol) diet for 14 days.
Each animal received a single dose of ZY compounds at 0.001 to 50 mg/kg/ as a carbomethoxy cellulose or polyethylene glycol in the evening administered as an oral gavage daily for 15 days. On day 14, after 1 hr of dose administration, non-fasted blood samples were collected in non heparinized capillary from animals for determination of total cholesterol (TC), triglyceride (TG) (Wieland, O. Methods of Enzymatic analysis. Bergermeyer, H., O., Ed., 1963. 211-214; Trinder, P. Ann. Clin. Biochem. 1969. 6: 24-27). Measurement of serum triglyceride and total cholesterol was done using commercial kits (Pointe Scientific.Inc.USA.) And on day 14 night all animals will be kept for fasting for 12-16 hours. On day 15, after 1 hour of dose administration fasted blood samples will be collected from animals for determination of high density lipoprotein (HDL), and low density lipoprotein (LDL) in serum. The animals will then be euthanized by carbon-dioxide asphyxia (and cervical dislocation, if necessary) and heart, kidney and liver will be resected and weighed.
as §1
Percentage reduction(%)=(TT−TC)/TC*100
TC=Test day control group TT=Test day treated group.

The target in the next experiment is T2, hPPAR α (Homo sapiens, UniProt Q07869).
T2 sequence (Q07869 1-468): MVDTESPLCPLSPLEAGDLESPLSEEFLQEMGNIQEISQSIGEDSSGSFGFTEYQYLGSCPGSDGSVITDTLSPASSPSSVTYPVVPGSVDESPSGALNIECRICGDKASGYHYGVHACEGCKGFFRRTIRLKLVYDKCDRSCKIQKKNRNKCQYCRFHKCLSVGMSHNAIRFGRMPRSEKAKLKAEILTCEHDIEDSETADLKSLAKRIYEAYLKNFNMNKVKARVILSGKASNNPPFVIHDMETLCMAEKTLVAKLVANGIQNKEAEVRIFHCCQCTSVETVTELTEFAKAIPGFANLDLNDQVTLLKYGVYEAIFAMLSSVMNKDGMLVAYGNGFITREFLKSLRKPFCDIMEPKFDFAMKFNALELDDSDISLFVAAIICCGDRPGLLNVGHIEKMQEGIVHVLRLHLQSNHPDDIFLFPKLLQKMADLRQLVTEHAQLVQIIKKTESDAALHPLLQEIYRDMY
Description: In vitro hPPAR alpha activity (in-house protocol). Format: cell-based. Particulars: read-out: EC50 (PPAR alpha). How it is done: as §2

This note sets out measurements from US20090012069A1, “Novel Antidiabetic Compounds” (priority 2004, published 2009).

Molecules are shown by their SMILES.

The term EC50 denotes the concentration that produces a half-maximal response. Turning to `Cc1oc(-c2ccccc2)nc1CCOc1ccc(CC2COC(C)(C(=O)O)OC2)cc1` (stereo not drawn) [Example 61, 2-Methyl-5-{4-[2-(5-methyl-2-phenyl-oxazol-4-yl)-ethoxy]-benzyl}-[1,3]dioxane-2-carboxylic acid], the “% Triglyceride lowering” value in the experiment with Swiss albino mice is reported as 23%; in experiment [1] it was 30%. The values for the EC50 on hPPARγ and at hPPAR α were 96 nM and 1090 nM, respectively.
Regarding `Cn1c(COc2ccc(CC3COC(C)(C(=O)O)OC3)cc2)nc2ccccc2c1=O` (stereo not drawn) [Example 66, 2-Methyl-5-[4-(3-methyl-4-oxo-3,4-dihydro-quinazolin-2-ylmethoxy)-benzyl]-[1,3]dioxane-2-carboxylic acid], the “% Triglyceride lowering” value in the experiment with Swiss albino mice was determined as 40%. The half-maximal effective concentration (EC50) at hPPARγ is 15 nM; on hPPAR α, 72 nM.
`CC1(C(=O)O)OCC(Cc2ccc(OCCn3ccc4ccccc43)cc2)CO1` (stereo not drawn) [Example 70, 5-cis-[4-(2-Indol-1-yl-ethoxy)-benzyl]-2-methyl-[1,3]dioxane-1-carboxylic acid]: the results for the EC50 on hPPARγ and on hPPAR α were 19.8 nM and 600 nM, respectively.
Regarding `CC1(C(=O)O)OCC(c2ccc(OCCc3ccc(OS(C)(=O)=O)cc3)cc2)CO1` (stereo not drawn) [Example 96, 5-cis-{4-[2-(4-Methanesulfonyloxy-phenyl)-ethoxy]-phenyl}-2-methyl-[1,3]dioxane-2-carboxylic acid], the “% Triglyceride lowering” value in experiment [1] worked out at 41%.
Consider `Cc1ccc(-c2nc(CCOc3ccc(C4COC(C)(C(=O)O)OC4)cc3)c(C)o2)cc1` (stereo not drawn) [Example 100, 2-Methyl-5-trans-{4-[2-(5-methyl-2-p-tolyl-oxazol-4-yl)-ethoxy]-phenyl}-[1,3]dioxane-2-carboxylic acid], for which the “% Triglyceride lowering” value in the experiment with Swiss albino mice was found to be 44%.
For `CC1(C(=O)O)OCC(c2ccc(OCCOc3ccc(Oc4ccccc4)cc3)cc2)CO1` (stereo not drawn) [Example 106, 2-Methyl-5-cis-{4-[2-(4-phenoxy-phenoxy)-ethoxy]-phenyl}-[1,3]dioxane-2-carboxylic acid], the “% Triglyceride lowering” value in experiment [1] amounted to 50%.
